From patent US7560476B2, “Microbicidal composition” (Rohm and Haas Company, priority 2003, dated 2009) come the findings set out here.

Assay [1] relates to microorganisms isolated from contaminated paint. The assay can be described thus: Testing of synergistic combinations in paint (repeated inoculation). In kind it is cell-based. The settings on record: paint pH 8.5-8.8. As for the experimental part:
A paint formulation having a pH of 8.5-8.8 was prepared from an acrylic binder, cellulosic thickener, kaolin, additives for formulation, and water. Fifty grams of the paint samples are inoculated repeatedly with microorganisms isolated from contaminated paint, with rising concentrations of inoculum. This treatment is carried out once a week. Six days after each inoculation, the surviving microorganisms are evaluated in each sample by applying onto nutrient media. These streak-outs are assessed after an incubation time of up to seven days (at 27±2° C. and 85-95% relative atmospheric humidity). An unpreserve sample of the system to be examined is used to check the susceptibility to the growth of microorganisms. Five inoculation cycles are carried out, thus leading to a test duration of six weeks. The rating scale for evaluation microbial growth is as follows: […]

Assay [2] has as its system A. niger 16404. The assay can be described thus: Synergy test, microtiter plate high resolution MIC assay, PDB medium. In kind it is cell-based, Aspergillus niger. As for the experimental part:
(§1) Synergism was determined by an industrially accepted method described by Kull, F. C.; Eisman, P. C.; Sylwestrowicz, H. D. and Mayer, R. L., in Applied Microbiology 9:538-541 (1961), using the ratio determined by the formula: Qa/QA+Qb/QB=Synergy Index (“SI”) wherein: • QA=concentration of compound A (first component) in ppm, acting alone, which produced an end point (MIC of Compound A). • Qa=concentration of compound A in ppm, in the mixture, which produced an end point. • QB=concentration of compound B (second component) in ppm, acting alone, which produced an end point (MIC of Compound B). • Qb=concentration of compound B in ppm, in the mixture, which produced an end point.
(§2) When the sum of Qa/QA and Qb/QB is greater than one, antagonism is indicated. […] The lower the SI, the greater the synergy shown by that particular mixture. The minimum inhibitory concentration (MIC) of a microbicide is the lowest concentration tested under a specific set of conditions that prevents the growth of added microorganisms.
(§3) Synergy tests were conducted using standard microtiter plate assays with media designed for optimal growth of the test microorganism. Minimal salt medium supplemented with 0.2% glucose and 0.1% yeast extract (M9GY medium) was used for testing bacteria; Potato Dextrose Broth (PDB medium) was used for testing yeast and mold. In this method, a wide range of combinations of microbicides was tested by conducting high resolution MIC assays in the presence of various concentrations of MI. High resolution MICs were determined by adding varying amounts of microbicide to one column of a microtitre plate and doing subsequent […] dilutions using an automated liquid handling system to obtain a series of endpoints ranging from 2 ppm to 10,000 ppm active ingredient. The synergy of the combinations of the present invention was determined against two bacteria, Staphylococcus aureus (S. aureus—ATCC #6538) or Pseudomonas aeruginosa (P. aeruginosa—ATCC #15442), a yeast, Candida albicans (C. albicans—ATCC 10231), and a mold, Aspergillus niger (A. niger—ATCC 16404). […]

Assay [3] deals with P. aeruginosa 9027. Description: Synergy test, microtiter plate high resolution MIC assay, M9GY medium. In kind it is cell-based, Pseudomonas aeruginosa.
Assay [4] deals with C. albicans 10231. The assay can be described thus: Synergy test, microtiter plate high resolution MIC assay, PDB medium. In kind it is cell-based, Candida albicans. As for the experimental part:
as §1, §2, §3

In assay [5] the test system is S. aureus 6538. The assay can be described thus: Synergy test, microtiter plate high resolution MIC assay, M9GY medium. In kind it is cell-based, Staphylococcus aureus. As for the experimental part:
as §1, §2, §3

What is called MIC is the least concentration at which growth counts as inhibited.

Structures are written as SMILES. Where two headings read alike, the source gives them in different places.

For the compound `CNC(=O)c1ccccc1SSc1ccccc1C(=O)NC` [DTBMA, 2,2′-dithiobis(N-methylbenzamide)], the “growth rating >5 inoc.” value in assay [1] (0.0 ppm MI, 152.0 ppm DTBMA (0:100)) is 3; in assay [1] (0.0 ppm MI, 228.0 ppm DTBMA (0:100)), 3. In addition, the MIC in assay [2] (Aspergillus niger, 16404, PDB, 72 hours, read-out: QDTBMA (MIC of DTBMA acting alone)) worked out at 1500 µg/mL; in assay [3] (Pseudomonas aeruginosa, 9027, M9GY, 72 hours, read-out: QDTBMA (MIC of DTBMA acting alone)), 1000 µg/mL; in assay [4] (Candida albicans, 10231, PDB, 48 hours, read-out: QDTBMA (MIC of DTBMA acting alone)), 40 µg/mL; in assay [5] (Staphylococcus aureus, 6538, M9GY, 24 hours, read-out: QDTBMA (MIC of DTBMA acting alone)), 40 µg/mL.
Consider `Cn1sc2ccccc2c1=O` [MBI, 2-methylbenzisothiazolone], for which the minimal inhibitory concentration (MIC) is 60 µg/mL in assay [2] (Aspergillus niger, 16404, PDB, 72 hours, read-out: QMBI (MIC of MBI acting alone)); 200 µg/mL in assay [3] (Pseudomonas aeruginosa, 9027, M9GY, 72 hours, read-out: QMBI (MIC of MBI acting alone)); 8 µg/mL in assay [4] (Candida albicans, 10231, PDB, 48 hours, read-out: QMBI (MIC of MBI acting alone)); 8 µg/mL in assay [5] (Staphylococcus aureus, 6538, M9GY, 24 hours, read-out: QMBI (MIC of MBI acting alone)).
As for `Cn1sccc1=O` [MI, 2-methyl-4-isothiazolin-3-one], the “growth rating >5 inoc.” value in assay [1] (150.0 ppm MI, 0.0 ppm DTBMA (100:0)) is on record as 2/1. Also, the MIC was found to be 400 µg/mL in assay [2] (Aspergillus niger, 16404, 72 h, read-out: QMI (MIC of MI acting alone)); 25 µg/mL in assay [3] (Pseudomonas aeruginosa, 9027, 72 h, read-out: QMI (MIC of MI acting alone)); 175 µg/mL in assay [4] (Candida albicans, 10231, 48 h, read-out: QMI (MIC of MI acting alone)); 60 µg/mL in assay [5] (Staphylococcus aureus, 6538, 24 h, read-out: QMI (MIC of MI acting alone)).
